Test results as given in patent publication EP2397471A1, “Benzimidazole compounds and their use” (China Medical University, priority 2010, dated 2011).

Assays:
PC-3 cells [1] = experiment: FACScan flow cytometric analysis of cell cycle progression; assay type: cell-based; settings: 1 µM, 3 µM, and 10 µM, 0 hr to 48 hrs
Experimental: PC-3 cells were treated with Compound 55 (at different concentrations: 1 µM, 3 µM, and 10 µM) for 0 hr, 6 hrs, 12 hrs, 18 hrs, 24 hrs, 36 hrs, and 48 hrs. After treatment, cells were washed twice with ice-cold PBS, collected by centrifugation and fixed in 70% (v/v) ethanol at 4°C for 30 min. Then, cells were treated with 0.2 ml of a buffer (containing 0.2 M Na2HPO4 and 0.1 M citric acid buffer, pH 7.8) for 30 min, centrifuged, and then incubated in 1 mL propidium iodide (PI) staining buffer (0.1 % Triton X-100, 100 µg/mL RNase A, 80 µg/mL propidium iodide in PBS) at 37°C for 30 min. Cells were detected using a cytofluorometer, and analyzed by FACScan and CellQuest program (Becton Dickinson).

Ras, Raf-1, and MEK = experiment: Western blotting of Ras, Raf-1, MEK; assay type: cell-based; settings: PC-3 cells; 10 µM; 30-120 min for Ras, 6-24 hrs for Raf-1, MEK
Experimental: (§1) PC-3 cells were incubated with a vehicle (0.1% DMSO) as control or Coumpound 55 (10 µM) for 30 min, 45 min, 60 min, and 120 min for testing Ras; or for 6 hrs, 12 hrs, 18 hrs, and 24 hrs for testing Raf-1, Phospho-MEK, MEK, and GAPDH. After the treatment, cells were washed twice with ice-cold PBS and then lysed with 100 µL lysis buffer (20 mM Tris, pH 7.5, 1 mM MgCl2, 125 mM NaCl, 1% Triton X-100, 1 mM phenylmethylsulphonylfluoride, 10 µg/mL leupeptin, 10 µg/mL aprotinin, 25 mM β-glycerophosphate, 50 mM NaF, and 100 µM sodium orthovanadate). Then, the expressions of the above proteins were detected by Western blotting.

[2] = tested on: Cyclin E, Cyclin A, Cyclin B1, Cdk1, Cdk2, p27, MPM2; experiment: Western blot analysis of cell-cycle regulators; assay type: cell-based; settings: PC-3 cells; 10 µM
Experimental: as §1
The cell-cycle regulators were also examined by Western blot analysis. Proteins in the lysis (40 µg) were separated by electrophoresis in a 10 or 15% polyacrylamide gel, transferred to a nitrocellulose membrane and immuno-reacted with respective antibodies against Cyclin E, Cyclin A, Cyclin B1, Cdk1, Cdk2, p27, MPM2, and GAPDH.

Tubulin proteins = experiment: In vitro tubulin turbidity assay; assay type: biochemical; settings: absorbance at 340 nm, 37°C, 60 min
Experimental: Effects of the benzimidazole compounds on tubulin polymerization were detected using CytoDYNAMIX Screen 03 kit (Cytoskeleton, Inc., Denver, CO).
Tubulin proteins (> 99% purity) were suspended in G-PEM buffer containing 80 mM PIPES, 2 mM MgCl2, 0.5 mM […], and 1.0 mM GTP (pH 6.9) and 5% glycerol with or without a test compound. Then, the mixture was transferred to a 96-well plate and the absorbance was measured at 340 nm (37°C) for 60 min (SpectraMAX Plus, Molecular Devices Inc., Sunnyvale, CA).
Level oftubulin polymerization was determined by examining turbidity of the tubulin suspension. Absorbance of the suspension at 340 nm was plotted as a function of time. Accordingly, the velocity and magnitude of tubulin polymerization were determined.

PC-3 cells [3] = experiment: In situ tubulin assay (immunofluorescence microscopy); assay type: cell-based; settings: 18 to 24 h
Experimental: The organization and formation of microtubule were detected by immunofluorescence microscopic examination in PC-3 cells.
PC-3 cells were seeded in 8-well chamber slides and incubated with a vehicle (0.1% DMSO, control), Compound 55 (10 µM), taxol (0.1 µM), or vincristine (0.1 µM) for 18 to 24 h. Then, the cells were fixed with 100 % methanol at -20°C for 5 min and incubated in 1 % bovine serum albumin (BSA) containing 0.1 % Triton X-100 at 37°C for 30 min. Cells were then washed twice with PBS for 5min and stained with primary antibody specific to β-tubulin at 37°C for 1 h. Afterwards, FITC-labeled secondary antibodies were used (staining performed at 37°C for 40 min, green fluorescence) and the protein was detected using a confocal laser microscopic system (Leica TCS SP2). The nuclei were visible by DAPI staining (1 mg/mL DAPI, blue fluorescence).

[4] = tested on: Bcl-2 family member proteins, caspases; experiment: Western blot analysis of Bcl-2 family member proteins and caspases (apoptosis); assay type: cell-based; settings: PC-3 cells; 10 µM; 0 hr to 36 hrs
Experimental: Effect of benzimidazole compounds on inducing apoptosis was evaluated by testing their effect on the expression/activation of Bcl-2 family member proteins, caspases, and c-Jun N-terminal kinase (JNK). Bcl-2 family of proteins is the most important regulators of mitochondria-involved apoptotic cell death. The pro-apoptotic members, Bax, Bak and Bad, are required for the disruption of mitochondria; whereas the anti-apoptotic Bcl-2, Bcl-xL and Mcl-1 can prevent apoptosis by antagonizing the pro-apoptotic members.
PC-3 cells were incubated with a vehicle (0.1% DMSO) or Compound 55 (10 µM) for 0 hr, 6 hrs, 12 hrs, 18 hrs, 24 hrs, and 36 hrs. Then, the cells were harvested and lysed for the detection of protein expression with specific antibodies by western blot analysis. For Western blotting, the proteins (40 µg) in the lysis (including Phospho-Bcl-2, Bcl-2, Phospho-Bcl-xL, Bcl-xL, Mcl-1, Bax, Bak, Bad, GAPDH, cleaved Bad, Caspase-9, cleaved Caspase-9, Caspase-3, cleaved Caspase-3, poly-(ADP-ribose) polymerase (PARP), cleaved PARP, and GAPDH) were separated by electrophoresis in a 10 to 15% polyacrylamide gel, transferred to a nitrocellulose membrane and immuno-reacted with specific antibodies.

Row | Compound | cell population at G2/M phase (PC-3 cells [1]) | hypodiploid (sub-G1, apoptosis) population of the cell cycle (PC-3 cells [1]) | expression of Ras, Raf-1, and MEK (Ras, Raf-1, and MEK) | expression of cyclin B1 [2] | expression of cyclin E and cyclin A [2] | tubulin polymerization (Tubulin proteins) | spindles and nuclei, in situ labeling of tubulin and chromosomes (PC-3 cells [3]; 10 µM) | Mcl-1 expression [4] | cleavage of caspase-9, caspase-3 and PARP [4] | phosphorylation and degradation of Bcl-2 and Bcl-xL [4] | spindles and nuclei, in situ labeling of tubulin and chromosomes (PC-3 cells [3]; 0.1 µM)
1 | COc1cc(Cn2c(-c3ccccc3)nc3cc(N4CCCC4)ccc32)cc(OC)c1OC [Compound 55, 2-phenyl-5-(pyrrolidin-1-yl)-1-(3,4,5-trimethoxybenzyl)-1H benzo[d]imidazole] | increase of cell population at G2/M phase | subsequent increase of hypodiploid (sub-G1, apoptosis) population | upregulated Ras, Raf-1, and MEK | upregulated cyclin B1 | downregulated cyclin E and cyclin A | inhibited tubulin polymerization in a dose-dependent manner | mono-polar | decrease of Mcl-1 expression | cleaved to produce catalytically active fragments | induced the phosphorylation and degradation of Bcl-2 and Bcl-xL | 
2 | CC(=O)O[C@H]1C(=O)[C@@]2(C)[C@H]([C@H](OC(=O)c3ccccc3)[C@]3(O)C[C@H](OC(=O)[C@H](O)[C@@H](NC(=O)c4ccccc4)c4ccccc4)C(C)=C1C3(C)C)[C@]1(OC(C)=O)CO[C@@H]1C[C@@H]2O [taxol] |  |  |  |  |  |  |  |  |  |  | multi-polar spindles and multiple nuclei were formed
3 | CC[C@]1(O)C[C@H]2CN(CCc3c([nH]c4ccccc34)[C@@](C(=O)OC)(c3cc4c(cc3OC)N(C=O)[C@H]3[C@@](O)(C(=O)OC)[C@H](OC(C)=O)[C@]5(CC)C=CCN6CC[C@]43[C@@H]65)C2)C1 [vincristine] |  |  |  |  |  |  |  |  |  |  | multi-polar spindles and chromosome condensation were observed
